In brackets after ≈: the same amount, converted by molar mass. Read-outs that look alike come from different tables or passages of the source.
Experiments:
S. aureus = assay: In vitro antibacterial activity (MIC), S. aureus; format: cell-based, Staphylococcus Aureus; conditions: for MIC: S. aureus (12 strains)
Experimental: Strains: strain ATCC25923 is available from the American Type Culture Collection, and is used as a standard strain of Staphylococcus Aureus;
Liquid medium: MH bouillon culture medium, a product of BD Company, United States of American;
Tested Compounds: compounds 12a, 13 and 14 prepared according to the methods above, and Linezolid purchased from Pfizer.
(§1) The test strain was inoculated into the liquid medium and cultured at 37° C. for 16-18 h. The culture liquid and MH medium were put into two blank wells of a 96-well plate, respectively. Then, the absorptions thereof were measured by a Microplate reader. The difference between the absorption values of the culture liquid and MH medium is the adsorption of the bacteria. The concentration of the culture liquid can be calculated according to the formula of 1OD=50 million CFU/mL. The culture liquid was diluted with the MH bouillon culture medium to 5000 CFU/mL for further use.
(§2) Compounds 12a, 13 and 14 were dissolved in DMSO to 1 mg/mL, and then filtered with a 0.22 μm filter to obtain the compound solutions. And then they were gradually diluted to a desired concentration (10× final concentration) with the liquid medium, so as to obtain a series of dilutions. The final concentration grade of the dilutions of each tested compound consists of 14 concentrations, which includes: 0.03125 μg/mL, […], 0.125 μg/mL, 0.25 μg/mL, […], 1 μg/mL, 2 μg/mL, 4 μg/mL, 8 μg/mL, 16 μg/mL, 32 μg/mL, 64 μg/mL, 128 μg/mL and 256 μg/mL.
(§3) 10 μL of each of the compound dilutions above was added into a well of a 96-well plate. 90 μL of the culture liquid (5000 CFU/mL) was added into each of the wells, respectively, mixed with the dilutions to render the tested compound concentration to the final concentration. The resulted mixture was incubated at 37° C. for 16-18 h, and then the OD630 thereof was measured. A culture liquid free of the tested compounds is used as a blank control, and three parallel tests with the same concentration of each compound were performed. The minimum inhibitory concentration (MIC) of each compound on the standard strain of Staphylococcus Aureus and other test strains was determined. Specifically, among the culture liquid contained in the wells of the micro-plate, the first three lowest concentrations under which growth of the test strains could be observed were chose for further evaluation of the MIC. A culture liquid free of tested compounds was used as a blank control. Each of the culture liquids was homogenized independently, and then was diluted with a sterile saline. Each of the diluted culture liquids was plated onto a MH bouillon plate and incubated at 37° C. for 20 h in incubator. After the incubation, the number of the colonies on each plate was counted. As compared with the blank control group, the lowest concentration of each of the test compound groups, at which 80% reduction in the colony number of the strains was achieved, was recorded as the MIC.

L-02 = assay: Cytotoxicity experiment (MTT), L-02; format: cell-based; conditions: L-02 normal cells
Experimental: (1) Inoculating cells: Experimental cells in the growth of logarithmic phase were collected and suspended. The cell concentration of the suspension was adjusted so that they could be inoculated into the wells of 96-well micro plate at a density between 10^3-10^4 cells per well (200 μl per well). (2) Culturing cells: The cells were cultured at normal conditions for 3 days and then exposed to 50 uM compounds for test. (3) Coloring reaction: At 24 h, 48 h and 72 h after the cells being exposed to the compounds for test, 200 μl culture medium containing 20 μl MTT solution (5 mg/ml) was added into each well, and the well was further incubated at 37° C. for 2 hours to terminate the incubation. After the incubation, the supernatants were removed from the wells. In the event there were suspended cells in the wells, centrifugation should be performed before removal of supernatant from the wells. After the removal, 150 μl DMSO was added to each well and mixed thoroughly by agitation for 10 mins to fully dissolve crystals. (4) Ascertainment of colorimetry: The absorbance value at 490 nm of each well was determined by Enzyme-linked immunosorbent Monitor. The growth curve of the experimental cells was plotted by taking time as x-coordinate and absorbance value as y-coordinate. In addition, an inhibition ratio could be calculated in accordance with the following formula: Inhibition ratio=(absorbance value of control group-absorbance value of administering group)/absorbance value of control group×100%.

PNSSP = assay: Minimum bactericidal concentration (MBC) test, PNSSP; format: cell-based, Streptococcus pneumoniae; conditions: strain 09J699, PNSSP
Experimental: Staphylococcus and Enterococcus faecium were incubated in Mueller-Hinton agar medium (MHA medium) at 35° C. for 16-20 h; S. pneumoniae was incubated in Cation-Adjusted Mueller-Hinton Broth medium (CAMHB medium) supplemented with 2.5-5.5% (v/v) lysed horse blood (LHB) at 35° C. for 20-24 h; and Streptococcus were incubated in sheep blood-containing medium (prepared by addition of 5% defibrinated sheep blood into MHA media) at 35° C. for 20-24 h in 5% CO2 environment (CO2 incubator). Before test of the compound activity, each stock of the bacteria strains was activated and colonized in the following manner: the stock was transferred and cultured in a liquid culture medium, the culture liquid was smeared onto an agar plate with an inoculating loop to obtain bacterial colonies on the plate after incubation, and then a colony of the bacteria was chose to be suspended into the liquid culture medium for performing the test of compound activity. As a result, fresh bacteria cells were applied to the test. The standard strains were used as sensitive bacterium to control the quality of the experiments, and a plate or tube containing no antibacterial compounds is used as a blank control for the growth of test strains.
The minimal inhibitory concentration (MIC) of the test compounds on the strains of Streptococcus pneumoniae was determined by a standard broth macrodilution method, while the MIC of the test compounds on the other bacteria stains was determined by standard agar double dilution methods. The concentration of the test compounds was in the range of 32 mg/L-0.016 mg/L. The bacterial suspensions to be tested were inoculated by a multipoint inoculator, and the inoculation amount at each point is 10^4 CFU. The MIC of the test compound to each strain of the bacteria was determined.
The MBC was determined by a tube double dilution method. Solutions of the test compounds was prepared and serially diluted. Each of the solutions was mixed with a bacterium suspension (10^6 CFU/mL), and then was incubated at 35° C. overnight. […]

S. pneumoniae = assay: In vitro antibacterial activity (MIC), S. pneumoniae; format: cell-based; conditions: S. pneumoniae (10 strains)
Experimental: as §1, §2, §3

CC(=O)NC[C@H]1CN(c2ccc(-n3cc(-c4ccccn4)cn3)c(F)c2)C(=O)O1 [Compound 13f, (S)-N-((3-(3-fluoro-4-(4-(pyridin-2-yl)-1H-pyrazol-1-yl)phenyl)-2-oxooxazolidin-5-yl)methyl)acetamide]
MIC (S. aureus; Staphylococcus aureus, read-out: MIC): 0.25 to 2 µg/mL (≈ 0.632 to 5.06 µM)
activity ranking among test compounds (S. aureus; Table 2: S. aureus, S. pneumoniae, S. agalactiae and E. faecalis): most optimum activity
cytotoxicity at 50 µM (L-02; Homo sapiens, L02, 48 h, read-out: Inhibition ratio): 2.74%
MBC (PNSSP; Streptococcus pneumoniae): 0.002 µg/mL (≈ 0.00506 µM)
MIC (PNSSP; Streptococcus pneumoniae): 0.001 µg/mL (≈ 0.00253 µM)
MBC/MIC (PNSSP): 2
MIC (S. pneumoniae; Streptococcus pneumoniae, read-out: MIC): 0.25 to 1 µg/mL (≈ 0.632 to 2.53 µM)

CC(=O)NC[C@H]1CN(c2ccc(N3CCOCC3)c(F)c2)C(=O)O1 [Linezolid, reference compound]
MIC (S. aureus): 4 to 32 µg/mL
Inhibition ratio (L-02; 50 uM, 48 h): >50%
MIC (S. pneumoniae): 2 to 32 µg/mL

Reference: patent US8946436B2, “Oxazolidinone compounds and their uses in preparation of antibiotics” (Sichuan Gooddoctor Pharmaceutical Group Co., Ltd., priority 2011, dated 2015)
